Source: ChEMBL document CHEMBL3526122, “Identification of UDP-glucuronosyltransferases responsible for the glucuronidation of darexaban, an oral factor Xa inhibitor, in human liver and intestine” (Drug Metab Dispos, 2012)

Columns and labels:
[1] = test system: Liver microsome; experiment: Intrinsic clearance in human liver microsomes assessed per mg of protein at 1 to 250 uM after 10 mins in presence of UDPGA; assay type: ADME
[2] = Intrinsic clearance in human intestinal microsomes assessed per mg of protein at 1 to 250 uM after 5 mins in presence of UDPGA; assay type: ADME, Intestine, Microsome
[3] = Drug metabolism in human intestinal microsomes assessed as glucuronidation after 5 mins by Michaelis-Menten plot analysis in presence of UDPGA; assay type: ADME, Intestine, Microsome
[4] = biological target: T1, UDP-glucuronosyltransferase 1A9 (Homo sapiens, UniProt O60656); experiment: Activity of recombinant human UGT1A9 expressed in baculovirus-infected insect cells assessed as enzyme-mediated glucuronidation per mg of protein after 5 mins in presence of UDPGA; assay type: ADME
T1 sequence (O60656 whole entry): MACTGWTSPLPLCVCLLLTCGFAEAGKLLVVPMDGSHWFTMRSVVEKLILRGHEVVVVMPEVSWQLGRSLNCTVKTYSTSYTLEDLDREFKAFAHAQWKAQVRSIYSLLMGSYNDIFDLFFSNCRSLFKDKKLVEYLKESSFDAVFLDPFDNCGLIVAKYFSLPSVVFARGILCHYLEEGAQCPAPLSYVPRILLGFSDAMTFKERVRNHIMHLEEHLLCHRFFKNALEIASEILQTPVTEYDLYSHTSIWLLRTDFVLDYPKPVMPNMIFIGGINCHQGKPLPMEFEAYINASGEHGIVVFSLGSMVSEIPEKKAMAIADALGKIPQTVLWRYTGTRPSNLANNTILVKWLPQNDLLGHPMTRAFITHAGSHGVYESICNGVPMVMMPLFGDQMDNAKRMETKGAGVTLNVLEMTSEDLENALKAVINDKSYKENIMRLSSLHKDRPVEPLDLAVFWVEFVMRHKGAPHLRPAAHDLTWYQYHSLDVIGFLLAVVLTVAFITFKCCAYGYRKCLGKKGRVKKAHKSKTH

[5] = biological target: T2, UDP-glucuronosyltransferase 1A8 (Homo sapiens, UniProt Q9HAW9); experiment: Activity of human recombinant UGT1A8 expressed in baculovirus-infected insect cells assessed as enzyme-mediated glucuronidation per mg of protein after 10 mins in presence of UDPGA; assay type: ADME
T2 sequence (Q9HAW9 whole entry): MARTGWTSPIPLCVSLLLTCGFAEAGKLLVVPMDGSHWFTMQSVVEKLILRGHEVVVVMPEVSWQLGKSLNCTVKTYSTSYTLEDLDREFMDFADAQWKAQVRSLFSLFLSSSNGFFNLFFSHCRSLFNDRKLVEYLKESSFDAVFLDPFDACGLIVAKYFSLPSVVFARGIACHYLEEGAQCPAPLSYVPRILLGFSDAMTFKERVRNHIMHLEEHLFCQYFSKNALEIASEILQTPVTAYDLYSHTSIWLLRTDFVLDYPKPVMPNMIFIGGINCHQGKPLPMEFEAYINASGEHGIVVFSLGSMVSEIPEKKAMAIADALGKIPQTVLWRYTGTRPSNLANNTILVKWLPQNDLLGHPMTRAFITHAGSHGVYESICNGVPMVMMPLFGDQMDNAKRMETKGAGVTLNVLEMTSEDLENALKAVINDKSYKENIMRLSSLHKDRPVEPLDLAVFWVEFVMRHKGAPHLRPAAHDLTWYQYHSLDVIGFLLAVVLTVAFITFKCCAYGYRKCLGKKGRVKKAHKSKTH

[6] = biological target: T3, UDP-glucuronosyltransferase 1A4 (Homo sapiens, UniProt P22310); experiment: Activity of human recombinant UGT1A4 expressed in baculovirus-infected insect cells assessed as enzyme-mediated glucuronidation per mg of protein after 10 mins in presence of UDPGA; assay type: ADME
T3 sequence (P22310 whole entry): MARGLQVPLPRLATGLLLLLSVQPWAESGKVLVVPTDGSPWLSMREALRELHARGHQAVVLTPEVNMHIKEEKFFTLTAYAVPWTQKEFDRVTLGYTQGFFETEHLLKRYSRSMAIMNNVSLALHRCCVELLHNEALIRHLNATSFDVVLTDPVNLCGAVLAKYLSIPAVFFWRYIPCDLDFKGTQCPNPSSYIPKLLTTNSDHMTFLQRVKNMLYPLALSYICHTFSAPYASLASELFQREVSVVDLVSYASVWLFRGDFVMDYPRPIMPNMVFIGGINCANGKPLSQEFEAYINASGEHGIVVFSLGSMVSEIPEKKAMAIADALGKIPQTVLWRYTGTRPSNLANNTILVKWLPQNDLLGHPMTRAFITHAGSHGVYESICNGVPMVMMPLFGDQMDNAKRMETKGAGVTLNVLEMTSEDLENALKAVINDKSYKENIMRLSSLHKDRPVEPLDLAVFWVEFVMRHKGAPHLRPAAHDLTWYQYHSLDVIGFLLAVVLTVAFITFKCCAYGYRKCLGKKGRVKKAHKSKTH

[7] = Drug metabolism in human liver microsomes assessed as glucuronidation at 30 uM after 5 mins by LC-MS/MS analysis relative to vehicle-treated control in presence of bilirubin and UDPGA; assay type: ADME; conditions: with bilirubin, read-out: Drug metabolism
[8] = Fraction unbound in human liver microsomes at 1 to 250 uM after 10 mins by ultrafiltration method in presence of 0.1% fatty acid free BSA; assay type: ADME
[9] = Fraction unbound incubation mixture containing human recombinant UGT1A9 at 1 to 250 uM after 10 mins by ultrafiltration method in presence of 2% fatty acid free BSA

- CLint [1]: 8.71 µL/min/mg
- clearance [2]: 166 µL/min/mg
- Km at 5 min [3]: 27.3 µM
- Drug metabolism [4]: 2.43 nmol/min/mg
- Drug metabolism [5]: 0.393 nmol/min/mg
- Drug metabolism [6]: < 0.01 nmol/min/mg
- activity at 5 min, 30 µM [7]: 59.9%
- fraction unbound at 10 min, up to 250 µM [8]: 0.72
Structure (SMILES): COc1ccc(C(=O)Nc2cccc(O)c2NC(=O)c2ccc(N3CCCN(C)CC3)cc2)cc1.O=C(O)CCC(=O)O
- Fu [9]: 0.237
